Tested on: K562
Experiment: Antiproliferative activity against human K562 cells after 48 hrs by CCK8 assay
Assay type: functional, cell-based
Details: K562, 48 h

`Cc1cc(Nc2cc(N3CCOCC3)nc(Nc3ccc(F)c(Cl)c3)n2)n[nH]1` and `Cc1cc(Nc2cc(N3CCN(C)CC3)nc(Nc3ccc4c(c3)OCO4)n2)n[nH]1` are within 1.5-fold of each other in IC50: 213 nM for the first, 233 nM for the second.

Molecule `COC(=O)c1ccc(Nc2nc(Nc3cc(C)[nH]n3)cc(N3CCN(C)CC3)n2)cc1OC` has an IC50 of 762 nM.

Tested on: U-937
Experiment: Antiproliferative activity against human U937 cells after 48 hrs by CCK8 assay
Assay type: functional, cell-based
Details: U-937, 48 h

Going from `Cc1cc(Nc2cc(N3CCOCC3)nc(Nc3ccc(F)c(Cl)c3)n2)n[nH]1` to `Cc1cc(Nc2cc(N3CCN(C)CC3)nc(Nc3ccc4c(c3)OCO4)n2)n[nH]1`, the IC50 rises from 24 nM to 58.4 nM (2.4-fold). The first is the more potent here.

`COC(=O)c1ccc(Nc2nc(Nc3cc(C)[nH]n3)cc(N3CCN(C)CC3)n2)cc1OC` showed an IC50 of 545 nM.

Target: Aurora kinase B (Homo sapiens, UniProt Q96GD4)
Experiment: Inhibition of AURKB (unknown origin) using FAM-labeled peptide substrate preincubated for 10 mins followed by substrate addition measured after 60 mins by caliper assay
Details: not given

Chain of Aurora kinase B (Q96GD4 whole entry): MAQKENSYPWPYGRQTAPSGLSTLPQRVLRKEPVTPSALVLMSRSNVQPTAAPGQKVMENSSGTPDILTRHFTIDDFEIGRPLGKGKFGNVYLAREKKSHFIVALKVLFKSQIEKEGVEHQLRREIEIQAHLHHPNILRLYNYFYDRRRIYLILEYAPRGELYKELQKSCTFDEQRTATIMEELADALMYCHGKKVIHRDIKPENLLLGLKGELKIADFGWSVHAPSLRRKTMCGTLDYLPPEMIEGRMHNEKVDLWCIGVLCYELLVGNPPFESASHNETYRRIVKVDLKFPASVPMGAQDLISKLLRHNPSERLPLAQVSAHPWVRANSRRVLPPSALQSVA

Going from `Cc1cc(Nc2cc(N3CCOCC3)nc(Nc3ccc(F)c(Cl)c3)n2)n[nH]1` to `Cc1cc(Nc2cc(N3CCN(C)CC3)nc(Nc3ccc4c(c3)OCO4)n2)n[nH]1`, the IC50 rises from 34.6 nM to 91.7 nM (2.7-fold).

Molecule `COC(=O)c1ccc(Nc2nc(Nc3cc(C)[nH]n3)cc(N3CCN(C)CC3)n2)cc1OC` has an IC50 of 442 nM.

Tested on: HeLa
Experiment: Antiproliferative activity against human HeLa cells after 48 hrs by CCK8 assay
Assay type: functional, cell-based
Details: not given

`Cc1cc(Nc2cc(N3CCOCC3)nc(Nc3ccc(F)c(Cl)c3)n2)n[nH]1` and `Cc1cc(Nc2cc(N3CCN(C)CC3)nc(Nc3ccc4c(c3)OCO4)n2)n[nH]1` are within 1.5-fold of each other in IC50: 464 nM for the first, 457 nM for the second.

`COC(=O)c1ccc(Nc2nc(Nc3cc(C)[nH]n3)cc(N3CCN(C)CC3)n2)cc1OC` showed an IC50 of 872 nM.

Tested on: HCT-116
Experiment: Antiproliferative activity against human HCT116 cells after 48 hrs by CCK8 assay
Assay type: functional, cell-based
Details: HCT-116, 48 h

Compared with `Cc1cc(Nc2cc(N3CCN(C)CC3)nc(Nc3ccc4c(c3)OCO4)n2)n[nH]1`, `COC(=O)c1ccc(Nc2nc(Nc3cc(C)[nH]n3)cc(N3CCN(C)CC3)n2)cc1OC` is 1.6-fold higher in IC50: 719 nM for the first, 1140 nM for the second. The first is the more potent here.

Target: T1, Aurora kinase A (Homo sapiens, UniProt O14965)
T1 sequence (O14965 whole entry): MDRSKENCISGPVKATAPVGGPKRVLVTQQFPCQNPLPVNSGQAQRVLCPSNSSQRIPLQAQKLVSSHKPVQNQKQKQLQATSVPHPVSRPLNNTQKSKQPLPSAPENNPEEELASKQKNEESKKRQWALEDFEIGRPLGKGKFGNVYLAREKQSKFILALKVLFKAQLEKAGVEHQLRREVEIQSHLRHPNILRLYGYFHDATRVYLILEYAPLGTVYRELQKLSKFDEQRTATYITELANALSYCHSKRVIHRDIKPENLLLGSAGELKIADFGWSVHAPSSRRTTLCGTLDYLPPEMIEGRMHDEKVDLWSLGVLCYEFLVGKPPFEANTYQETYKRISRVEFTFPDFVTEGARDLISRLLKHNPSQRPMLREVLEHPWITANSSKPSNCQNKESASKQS
Experiment: Inhibition of AURKA (unknown origin) using FAM-labeled peptide substrate preincubated for 10 mins followed by substrate addition measured after 60 mins by caliper assay
Details: not given

Going from `Cc1cc(Nc2cc(N3CCOCC3)nc(Nc3ccc(F)c(Cl)c3)n2)n[nH]1` to `Cc1cc(Nc2cc(N3CCN(C)CC3)nc(Nc3ccc4c(c3)OCO4)n2)n[nH]1`, the IC50 rises from 6.3 nM to 20 nM (3.2-fold). The first is the more potent here.

With `COC(=O)c1ccc(Nc2nc(Nc3cc(C)[nH]n3)cc(N3CCN(C)CC3)n2)cc1OC` the IC50 was 67 nM.

Tested on: MDA-MB-231
Experiment: Antiproliferative activity against human MDA-MB-231 cells after 48 hrs by CCK8 assay
Assay type: functional, cell-based
Details: MDA-MB-231, 48 h

Compared with `Cc1cc(Nc2cc(N3CCOCC3)nc(Nc3ccc(F)c(Cl)c3)n2)n[nH]1`, `Cc1cc(Nc2cc(N3CCN(C)CC3)nc(Nc3ccc4c(c3)OCO4)n2)n[nH]1` is 2-fold higher in IC50: 101 nM for the first, 206 nM for the second.

In the case of `COC(=O)c1ccc(Nc2nc(Nc3cc(C)[nH]n3)cc(N3CCN(C)CC3)n2)cc1OC`, the IC50 is reported as 872 nM.

Tested on: MCF7
Experiment: Antiproliferative activity against human MCF7 cells after 48 hrs by CCK8 assay
Assay type: functional, cell-based
Details: MCF7, 48 h

Going from `Cc1cc(Nc2cc(N3CCOCC3)nc(Nc3ccc(F)c(Cl)c3)n2)n[nH]1` to `Cc1cc(Nc2cc(N3CCN(C)CC3)nc(Nc3ccc4c(c3)OCO4)n2)n[nH]1`, the IC50 rises from 577 nM to 911 nM (1.6-fold).

With `COC(=O)c1ccc(Nc2nc(Nc3cc(C)[nH]n3)cc(N3CCN(C)CC3)n2)cc1OC` the IC50 was 10300 nM.

Tested on: A-431
Experiment: Antiproliferative activity against human A431 cells after 48 hrs by CCK8 assay
Assay type: functional, cell-based
Details: A-431, 48 h

Going from `Cc1cc(Nc2cc(N3CCN(C)CC3)nc(Nc3ccc4c(c3)OCO4)n2)n[nH]1` to `COC(=O)c1ccc(Nc2nc(Nc3cc(C)[nH]n3)cc(N3CCN(C)CC3)n2)cc1OC`, the IC50 rises from 419 nM to 1220 nM (2.9-fold).

— ChEMBL document CHEMBL4145494, “Synthesis and biological evaluation of aurora kinases inhibitors based on N-trisubstituted pyrimidine scaffold” (Eur J Med Chem, 2018)
